Literature values as cited in patent publication US4356265A, “Method for the production of antibiotic C-15003 P-3” (priority 1979, dated 1982).
≈ marks a conversion by molar mass, not a printed value. Like-named read-outs stand apart in the source and are kept apart here.

What was measured:
[1] = system: Gibberella zeae; details: IFO 8850, PSA, 48 h; 0.02 ml of 1000 μg/ml
[2] = system: Trichophyton rubrum; details: IFO 5467, GB, 48 h; 0.02 ml of 1000 μg/ml
[3] = system: Bacillus subtilis; details: 0.02 ml of 300-μg/ml solution per disc, Trypticase Soy Agar
[4] = system: Guignardia laricina; details: IFO 7888, PSA, 48 h; 0.02 ml of 1000 μg/ml
[5] = system: Trichophyton mentagrophytes; details: IFO 7522, GB, 48 h; 0.02 ml of 1000 μg/ml
[6] = system: Pythium aphanidermatam; details: IFO 7030, PSA, 48 h; 0.02 ml of 1000 μg/ml
[7] = system: mice; details: intraperitoneal injection
[8] = system: Bacillus cereus; details: 0.02 ml of 300-μg/ml solution per disc, Trypticase Soy Agar
[9] = system: Pyricularia oryzae; details: PSA, 48 h; 0.02 ml of 1000 μg/ml
[10] = system: Sclerotinia sclerotiorum; details: IFO 9395, PSA, 90 h; 0.02 ml of 1000 μg/ml
[11] = system: Helminthosporium sigmoideum var. irregulare; details: IFO 5273, PSA, 48 h; 0.02 ml of 1000 μg/ml
[12] = system: Venturia pirina; details: IFO 6189, PAA, 48 h; 0.02 ml of 1000 μg/ml
[13] = system: Tetrahymena pyriformis W; details: pH 7.0, 28° C., 44 to 48 hours
[14] = system: Pellicularia sasakii; details: IFO 9253, PSA, 48 h; 0.02 ml of 1000 μg/ml
[15] = system: Cryptococcus neoformans; details: IFO 0410, GB, 48 h; 0.02 ml of 1000 μg/ml
[16] = system: Penicillium chrysogenum; details: IFO 4626, PSA, 48 h; 0.02 ml of 1000 μg/ml
[17] = system: Rhizopus nigricans; details: IFO 6188, PSA, 48 h; 0.02 ml of 1000 μg/ml
[18] = system: Cochlioborus miyabeanus; details: IFO 5277, PSA, 48 h; 0.02 ml of 1000 μg/ml
[19] = system: Rhodotorula rubra; details: IFO 0907, PSA, 48 h; 0.02 ml of 1000 μg/ml
[20] = system: Serratia, marcescens; details: 0.02 ml of 300-μg/ml solution per disc, Trypticase Soy Agar
[21] = system: Pseudomonas aeruginosa; details: 0.02 ml of 300-μg/ml solution per disc, Trypticase Soy Agar
[22] = system: Diaporthe citri; details: IFO 9170, PSA, 48 h; 0.02 ml of 1000 μg/ml
[23] = system: Alternaria kikuchiana; details: IFO 7515, PSA, 48 h; 0.02 ml of 1000 μg/ml
[24] = system: Aspergillus niger; details: IFO 4066, PSA, 48 h; 0.02 ml of 1000 μg/ml
[25] = system: P388 leukemia cells; details: 0.00625 mg/kg/day, intraperitoneally, 9 consecutive days; 1×10^6 cells/animal i.p.
[26] = system: Staphylococcus aureus; details: 0.02 ml of 300-μg/ml solution per disc, Trypticase Soy Agar
[27] = system: Proteus mirabilis; details: 0.02 ml of 300-μg/ml solution per disc, Trypticase Soy Agar
[28] = system: Fusicladium levieri; details: IFO 6477, PSA, 90 h; 0.02 ml of 1000 μg/ml
[29] = system: Saccharomyces cerevisiae; details: IFO 0209, PSA, 48 h; 0.02 ml of 1000 μg/ml
[30] = system: Talaromyces avellaneus; details: agar plate, pH 7.0
[31] = system: Candida utilis; details: IFO 0619, GB, 48 h; 0.02 ml of 1000 μg/ml
[32] = system: Candida albicans; details: IFO 0583, GB, 48 h; 0.02 ml of 1000 μg/ml
[33] = system: Botrytis cinerea; details: PSA, 48 h; 0.02 ml of 1000 μg/ml
[34] = system: Klebsiella pneumoniae; details: 0.02 ml of 300-μg/ml solution per disc, Trypticase Soy Agar
[35] = system: Fusarium oxysporum f. cucumerinum; details: PSA, 48 h; 0.02 ml of 1000 μg/ml
[36] = system: Elsinoe fawcetti; details: IFO 8417, PSA, 90 h; 0.02 ml of 1000 μg/ml
[37] = system: Mycobacterium avium; details: 0.02 ml of 300-μg/ml solution per disc, Trypticase Soy Agar
[38] = system: Proteus vulgaris; details: 0.02 ml of 300-μg/ml solution per disc, Trypticase Soy Agar
[39] = system: Escherichia coli; details: 0.02 ml of 300-μg/ml solution per disc, Trypticase Soy Agar

In the case of COc1cc2cc(c1Cl)N(C)C(=O)CC(OC(=O)C(C)C)C1(C)OC1C(C)C1CC(O)(NC(=O)O1)C(OC)C=CC=C(C)C2 (stereo not shown) [Antibiotic C-15003 P-3], the Inhibition diameter [1] is listed as 37 mm, the Inhibition diameter [2] is listed as 38 mm and the antibacterial activity [3] is listed as “no activity”. The Inhibition diameter [4] was 12 mm, the Inhibition diameter [5] was 38 mm and the Inhibition diameter [6] was 58 mm. For the same compound, the LD0 [7] was 0.313 mg/kg, the LD100 [7] was 0.625 mg/kg and the antibacterial activity [8] was “no activity”. The Inhibition diameter [9] was 53 mm, the Inhibition diameter [10] was 65 mm and the Inhibition diameter [11] was 55 mm. The Inhibition diameter [12] was 50 mm, the “growth inhibition (concentration at which it occurs)” value [13] was 1 µg/mL and the Inhibition diameter [14] was 50 mm. The Inhibition diameter [15] was 43 mm, the Inhibition diameter [16] was 35 mm and the Inhibition diameter [17] was 25 mm. The Inhibition diameter [18] was 60 mm, the Inhibition diameter [19] was 28 mm and the Solubility (in benzene, ether) was “Sparingly soluble”. For the same compound, the Solubility (in chloroform, ethyl acetate, acetone, ethanol, methanol, pyridine, tetrahydrofuran, dimethylsulfoxide) was “Soluble”, the Solubility (in petroleum ether, n-hexane, water) was “Insoluble” and the antibacterial activity [20] was “no activity”. The antibacterial activity [21] was “no activity”, the Inhibition diameter [22] was 55 mm and the Inhibition diameter [23] was 38 mm. The Inhibition diameter [24] was 0 mm, the life-span-extending ratio [25] was 200% and the antibacterial activity [26] was “no activity”. For the same compound, the antibacterial activity [27] was “no activity”, the Inhibition diameter [28] was 68 mm and the Inhibition diameter [29] was 0 mm. The minimal inhibitory concentration [30] was 3 µg/mL (≈ 4.72 µM), the Inhibition diameter [31] was 0 mm and the Inhibition diameter [32] was 0 mm. For the same compound, the Inhibition diameter [33] was 48 mm, the antibacterial activity [34] was “no activity” and the Inhibition diameter [35] was 20 mm. The Inhibition diameter [36] was 55 mm, the antibacterial activity [37] was “no activity” and the antibacterial activity [38] was “no activity”. The antibacterial activity [39] was “no activity”.
